22 molecules from US4117230A, “Hydantoin derivatives as therapeutic agents” (priority 1977, dated 1978) can be followed below.

Experiment [1] has as its system sorbitol accumulation in the sciatic nerve of streptozotocinized (i.e., diabetic) rats. Put plainly: inhibition of sorbitol accumulation in the sciatic nerve of acutely streptozotocinized (diabetic) rats. The experiment is classed as in vivo, rat. To be noted: measured at 27 h, vs untreated. On the procedure: (§1) The activity of the compounds of the present invention, as agents for the control of chronic diabetic complications, is determined by their ability to successfully pass one or more of the following standard biological and/or pharmacological tests, viz., (1) measuring their ability to inhibit the enzyme activity of isolated aldose reductase; (2) measuring their ability to reduce or inhibit sorbitol accumulation in the sciatic nerve of acutely sterptozotocinized (i.e., diabetic) rats; (3) measuring their ability to reverse already-elevated sorbitol levels in the sciatic nerve and lens of chronic streptozotocin-induced diabetic rats; (4) measuring their ability to prevent or inhibit galactitol formation in the lens of acutely galactosemic rats, and (5) measuring their ability to delay cataract formation and reduce the severity of lens opacities in chronic galactosemic rats.
The following spiro-hydantoin compounds of Preparation C and Examples I-V, VII-IX, XI-XVII, XIX-XXV, XXVII and XXX-XXXIII, respectively, were tested for their ability to reduce or inhibit sorbitol accumulation in the sciatic nerve of streptozotocinized (i.e., diabetic) rats by the procedure essentially described in U.S. Pat. No. 3,821,383. In the present study, the amount of sorbitol accumulation in the sciatic nerves was measured 27 hours after induction of diabetes. The compounds were administered orally at the dose levels indicated at 4, 8 nd 24 hours following the administration of streptozotocin. The results obtained in this manner are presented below in terms of percent inhibition (%) afforded by the test compound as compared to the case where no compound was administered (i.e., the untreated animal where sorbitol levels normally rise from approximately […]. tissue to as high as […]. tissue in the 27-hour test period): […]

Experiment [2] addresses T1, aldose reductase (Bos taurus, UniProt P16116).
T1 construct: partially purified aldose reductose enzyme obtained from calf lens; from tissue; host or cells: calf lens
Put plainly: inhibition of aldose reductase enzyme activity (procedure of S. Hayman et al., modified by K. Sestanj et al.). The experiment is classed as biochemical, calf. To be noted: calf lens enzyme, read-out: Percent inhibition of aldose reductase enzyme activity; for inhibition at 100 µM: 10^-4 M; for inhibition at 10 µM: 10^-5 M; for inhibition at 1 µM: 10^-6 M; for inhibition at 0.1 µM: 10^-7 M. On the procedure: as §1
Hayman et al., as described in the Journal of Biological Chemistry, Vol. 240, p. […] In every case, the substrate employed ws partially purified aldose reductose enzyme obtained from calf lens.

Setting [3] is: 5.0 mg./kg. orally at 4, 8 and 24 h after streptozotocin.
[4] abbreviates: 10 mg./kg. orally at 4, 8 and 24 h after streptozotocin.
Where [5] appears, read: 2.5 mg./kg. orally at 4, 8 and 24 h after streptozotocin.
[6] abbreviates: 1.5 mg./kg. orally at 4, 8 and 24 h after streptozotocin.

Consider `COc1ccc2c(c1)C1(CC2)NC(=O)NC1=O` (stereo not shown) [Ex. II, 6'-methoxy-spiro-[imidazolidine-4,1'-indan]-2,5-dione], for which, in experiment [1] (setting [3]), the “Percent inhibition of sorbitol accumulation in the sciatic nerve” value (“Percent inhibition” for short) amounted to 6%. Further, the “Percent inhibition” value in experiment [1] (setting [4]) is recorded as 54%. In experiment [2], the inhibition at 100 µM amounted to 97%, the inhibition at 10 µM stood at 61%, the inhibition at 1 µM is 17% and the inhibition at 0.1 µM was found to be 1%.

Regarding `O=C1NC(=O)C2(CCc3ccc(F)cc32)N1` (stereo not shown) [Ex. III, 6'-fluoro-spiro-[imidazolidine-4,1'-indan]-2,5-dione], the “Percent inhibition” value in experiment [1] (setting [3]) turned out to be 45%. Moreover, in experiment [2], the inhibition at 100 µM came out at 74%, the inhibition at 10 µM was determined as 12%, the inhibition at 1 µM turned out to be 22% and the inhibition at 0.1 µM is -1%.

In the case of `COc1cc2c(cc1OC)C1(CC2)NC(=O)NC1=O` (stereo not shown) [Ex. IV, 5',6'-dimethoxy-spiro-[imidazolidine-4,1'-indan]-2,5-dione], the “Percent inhibition” value in experiment [1] (setting [3]) came to 33%. In experiment [1] (setting [4]), the “Percent inhibition” value is 49%. Moreover, in experiment [2], the inhibition at 100 µM stood at 90%, the inhibition at 10 µM was 81%, the inhibition at 1 µM is 35% and the inhibition at 0.1 µM turned out to be 9%.

Turning to `O=C1NC(=O)C2(CCSc3ccc(Cl)cc32)N1` (stereo not shown) [Ex. IX, 6'-chloro-spiro-[imidazolidine-4,4'-thiochroman]-2,5-dione], the “Percent inhibition” value in experiment [1] (setting [5]) came out at 58%. In experiment [2], the inhibition at 100 µM stood at 79%, the inhibition at 10 µM is 87%, the inhibition at 1 µM turned out to be 71% and the inhibition at 0.1 µM was 30%.

Take `O=C1NC(=O)C2(CCc3cc4c(cc32)OCO4)N1` (stereo not shown) [Ex. V, 5',6'-methylenedioxy-spiro-[imidazolidine-4,1'-indan]-2,5-dione]: the “Percent inhibition” value in experiment [1] (setting [3]) came to 9%. In experiment [2], the inhibition at 100 µM is 92%, the inhibition at 10 µM was found to be 67%, the inhibition at 1 µM was determined as 25% and the inhibition at 0.1 µM came to 3%.

As to `COc1ccc2c(c1)CCC21NC(=O)NC1=O` (stereo not shown) [Ex. VI, 5'-methoxy-spiro-[imidazolidine-4,1'-indan]-2,5-dione], in experiment [2], the inhibition at 100 µM was 82%, the inhibition at 10 µM came to 60%, the inhibition at 1 µM worked out at 13% and the inhibition at 0.1 µM was -10%.

Regarding `O=C1NC(=O)C2(CCSc3ccccc32)N1` (stereo not shown) [Ex. VII, spiro-[imidazolidine-4,4'-thiochroman]-2,5-dione], the “Percent inhibition” value in experiment [1] (setting [3]) came out at 39%. Besides, the “Percent inhibition” value in experiment [1] (setting [4]) is reported as 65%. In experiment [2], the inhibition at 100 µM was found to be 92%, the inhibition at 10 µM worked out at 64%, the inhibition at 1 µM came out at 10% and the inhibition at 0.1 µM is -5%.

In the case of `COc1ccc2c(c1)C1(CCS2)NC(=O)NC1=O` (stereo not shown) [Ex. VIII, 6'-methoxy-spiro-[imidazolidine-4,4'-thiochroman]-2,5-dione], the “Percent inhibition” value in experiment [1] (setting [3]) is on record as 26%. Also, in experiment [2], the inhibition at 100 µM turned out to be 76%, the inhibition at 10 µM amounted to 60%, the inhibition at 1 µM is 18% and the inhibition at 0.1 µM is 7%.

Consider `O=C1NC(=O)C2(CCSc3ccc(Br)cc32)N1` (stereo not shown) [Ex. X, 6-bromo-spiro-[imidazolidine-4,4'-thiochroman]-2,5-dione], for which the inhibition at 100 µM in experiment [2] worked out at 32%.

For `O=C1NC(=O)C2(CCSc3ccc(F)cc32)N1` (stereo not shown) [Ex. XII, 6'-fluoro-spiro-[imidazolidine-4,4'-thiochroman]-2,5-dione], the “Percent inhibition” value in experiment [1] (0.75 mg./kg. orally at 4, 8 and 24 h after streptozotocin) is on record as 13%. Moreover, the “Percent inhibition” value in experiment [1] (setting [6]) came to 45%. Moreover, in experiment [1] (setting [5]), the “Percent inhibition” value was determined as 74%. Also, in experiment [2], the inhibition at 100 µM is 81%, the inhibition at 10 µM was determined as 77%, the inhibition at 1 µM turned out to be 66% and the inhibition at 0.1 µM is 38%.

On to `O=C1NC(=O)C2(CCSc3c(Cl)cccc32)N1` (stereo not shown) [Ex. XIII, 8'-chloro-spiro-[imidazolidine-4,4'-thiochroman]-2,5-dione], for which, in experiment [1] (setting [6]), the “Percent inhibition” value came to 5%. Besides, the inhibition at 100 µM in experiment [2] is 60%.

As for `O=C1NC(=O)C2(CCSc3cc(Cl)ccc32)N1` (stereo not shown) [Ex. XIV, 7'-chloro-spiro-[imidazolidine-4,4'-thiochroman]-2,5-dione], the “Percent inhibition” value in experiment [1] (setting [6]) is 26%. Also, the inhibition at 100 µM in experiment [2] turned out to be 70%.

As for `O=C1NC(=O)C2(CCc3ccc(O)cc32)N1` (stereo not shown) [Ex. XIX, 6'-hydroxy-spiro-[imidazolidine-4,1'indan]-2,5-dione], the “Percent inhibition” value in experiment [1] (setting [4]) is on record as 15%. In addition, in experiment [2], the inhibition at 100 µM was 93%, the inhibition at 10 µM stood at 31%, the inhibition at 1 µM amounted to 11% and the inhibition at 0.1 µM was -30%.

Regarding `O=C1NC(=O)C2(CCCc3ncccc32)N1` (stereo not shown) [Ex. XV, 7',8'-dihydro-spiro[imidazolidine-4,5'(6H)-quinoline]-2,5-dione], the “Percent inhibition” value in experiment [1] (setting [3]) is 5%. Also, the “Percent inhibition” value in experiment [1] (setting [4]) is given as 52%. Also, in experiment [2], the inhibition at 100 µM came out at 83%, the inhibition at 10 µM worked out at 54%, the inhibition at 1 µM turned out to be 9% and the inhibition at 0.1 µM is -2%.

In the case of `COc1ccc2c(c1)C1(CCC2)NC(=O)NC1=O` (stereo not shown) [Ex. XVI, 3',4'-dihydro-7'-methoxy-spiro[imidazolidine-4,1'(2'H)naphthalene]-2,5-dione], the “Percent inhibition” value in experiment [1] (setting [3]) is 25%. Further, in experiment [1] (setting [4]), the “Percent inhibition” value came out at 44%. For the same molecule, in experiment [2], the inhibition at 100 µM was found to be 54% and the inhibition at 1 µM amounted to 23%.

Turning to `COc1cc2c(cc1OC)C1(CCC2)NC(=O)NC1=O` (stereo not shown) [Ex. XVII, 3',4'-dihydro-6',7'-dimethoxy-spiro[imidazolidine-4,1'-(2H)naphthalene]-2,5-dione], in experiment [2], the inhibition at 100 µM turned out to be 82%, the inhibition at 10 µM stood at 26%, the inhibition at 1 µM is 8% and the inhibition at 0.1 µM was 16%.

In the case of `COc1ccc2c(c1)CCCC21NC(=O)NC1=O` (stereo not shown) [Ex. XVIII, 3',4'-dihydro-6'-methoxy-spiro[imidazolidine-4,1'(2'H)naphthalene]-2,5-dione], in experiment [2], the inhibition at 100 µM worked out at 72%, the inhibition at 10 µM came out at 38%, the inhibition at 1 µM was 15% and the inhibition at 0.1 µM was found to be 7%.

Consider `O=C1NC(=O)C2(CCOc3ccccc32)N1` (stereo not shown) [Ex. XX, spiro[chroman-4,4'-imidazolidine]-2',5'-dione], for which the “Percent inhibition” value in experiment [1] (setting [5]) turned out to be 34%. The “Percent inhibition” value in experiment [1] (setting [3]) is reported as 58%. Besides, the “Percent inhibition” value in experiment [1] (setting [4]) worked out at 77%. In addition, in experiment [2], the inhibition at 100 µM is 73%, the inhibition at 10 µM is 64%, the inhibition at 1 µM was -9% and the inhibition at 0.1 µM is -16%.

`COc1cccc2c1CCCC21NC(=O)NC1=O` (stereo not shown) [Ex. XXVI, 3',4'-dihydro-5'-methoxy-spiro[imidazolidine-4,1'(2'H)-naphthalene]-2,5-dione]: in experiment [2], the inhibition at 100 µM was found to be 72%, the inhibition at 10 µM turned out to be 49%, the inhibition at 1 µM worked out at 5% and the inhibition at 0.1 µM turned out to be 0%.

As for `O=C1NC(=O)C2(CCOc3ccc(Br)cc32)N1` (stereo not shown) [Ex. XXVIII, 6-bromo-spiro-[chroman-4,4'-imidazolidine]-2',5'-dione], the inhibition at 100 µM in experiment [2] was 74%.

`O=C1NC(=O)C2(CCS(=O)(=O)c3ccccc32)N1` (stereo not shown) [Ex. XXXII, spiro-[imidazolidine-4,4'-thiochroman]-2,5-dione-1',1'-dioxide]: in experiment [2], the inhibition at 100 µM turned out to be 94%, the inhibition at 10 µM was 69%, the inhibition at 1 µM turned out to be 31% and the inhibition at 0.1 µM came out at 2%.

Take `Cc1cc(C)c2c(c1)C1(CCO2)NC(=O)NC1=O` (stereo not shown) [Ex. XXXIV, 6,8-dimethyl-spiro-[chroman-4,4'-imidazolidine]-2',5'-dione]: in experiment [2], the inhibition at 100 µM turned out to be 71%, the inhibition at 10 µM was found to be 84%, the inhibition at 1 µM amounted to 54% and the inhibition at 0.1 µM stood at 17%.

In general, inhibition refers to the relative decrease from the control value, in per cent.
